Measurements: patent US20030129629A1, “Methods and compositions for the identification, assessment, prevention, and therapy of human cancers” (Millennium Pharmaceuticals, Inc., priority 2000, published 2003)
Like-named read-outs stand apart in the source and are kept apart here.

Columns and labels:
[1] = system: 60 cancer cell lines (NCI 60 cancer cell line series); assay: NCI-DTP in vitro cancer screen, sulforhodamine B (SRB) growth inhibition, 48 hour exposure; format: cell-based, human
Summary of the method: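 NCI-DTP panel of 60 cancer cell lines plated day 0 at line-specific densities, exposed from day 1 to compound at 5 ten-fold-spaced doses in duplicate wells. After 48 h, cell mass stained with sulforhodamine B; −log GI50 derived from dose–response curves, averaged, and classed Low, Medium or High sensitivity.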

[2] = system: 60 cancer cell lines (NCI 60 cancer cell line series); settings: cited from earlier work

COc1cc([C@@H]2c3cc4c(cc3[C@@H](O[C@@H]3O[C@@H]5CO[C@@H](c6cccs6)O[C@H]5[C@H](O)[C@H]3O)[C@H]3COC(=O)[C@H]23)OCO4)cc(OC)c1O [Teniposide]
3: classification of cell line as Low(1), Medium(2), High(3) sensitivity to compound ([1]; Breast MCF7(I) CL5001) | classification of cell line as Low(1), Medium(2), High(3) sensitivity to compound ([1]; Leukemia CCRF-CEM(I) CL7003) | classification of cell line as Low(1), Medium(2), High(3) sensitivity to compound ([1]; Leukemia HL-60(I) CL7008) | classification of cell line as Low(1), Medium(2), High(3) sensitivity to compound ([1]; Leukemia MOLT-4 CL7006) | classification of cell line as Low(1), Medium(2), High(3) sensitivity to compound ([1]; Leukemia SR CL7019) | sensitivity classification Low(1)/Medium(2)/High(3) ([1]; NSCLC NCI-H460 CL1021) | sensitivity classification Low(1)/Medium(2)/High(3) ([1]; Renal CAKI-1 CL9015)
1: classification of cell line as Low(1), Medium(2), High(3) sensitivity to compound ([1]; Breast MCF7/ADRr CL5002) | sensitivity classification Low(1)/Medium(2)/High(3) ([1]; NSCLC NCI-H332M CL1017) | sensitivity classification Low(1)/Medium(2)/High(3) ([1]; Ovarian OVCAR-4 CL6002) | sensitivity classification Low(1)/Medium(2)/High(3) ([1]; Renal UO-31 CL9004)
2: classification of cell line as Low(1), Medium(2), High(3) sensitivity to compound ([1]; Breast BT-549 CL5013) | classification of cell line as Low(1), Medium(2), High(3) sensitivity to compound ([1]; Breast HS-578T CL5006) | classification of cell line as Low(1), Medium(2), High(3) sensitivity to compound ([1]; Breast MDA-MB-231 CL5005) | classification of cell line as Low(1), Medium(2), High(3) sensitivity to compound ([1]; Breast MDA-MB-435 CL5011) | classification of cell line as Low(1), Medium(2), High(3) sensitivity to compound ([1]; Breast MDA-N CL5012) | classification of cell line as Low(1), Medium(2), High(3) sensitivity to compound ([1]; Breast T-47D CL5014) | classification of cell line as Low(1), Medium(2), High(3) sensitivity to compound ([1]; CNS SF-268 CL12014) | classification of cell line as Low(1), Medium(2), High(3) sensitivity to compound ([1]; CNS SF-295 CL12015) | classification of cell line as Low(1), Medium(2), High(3) sensitivity to compound ([1]; CNS SF-539 CL12016) | classification of cell line as Low(1), Medium(2), High(3) sensitivity to compound ([1]; CNS SNB-19 CL12002) | classification of cell line as Low(1), Medium(2), High(3) sensitivity to compound ([1]; CNS SNB-75(I) CL12005) | classification of cell line as Low(1), Medium(2), High(3) sensitivity to compound ([1]; CNS U251(I) CL12009) | classification of cell line as Low(1), Medium(2), High(3) sensitivity to compound ([1]; Colon COLO-250 CL4010) | classification of cell line as Low(1), Medium(2), High(3) sensitivity to compound ([1]; Colon HCC-2998 CL4002) | classification of cell line as Low(1), Medium(2), High(3) sensitivity to compound ([1]; Colon HCT-15 CL4015) | classification of cell line as Low(1), Medium(2), High(3) sensitivity to compound ([1]; Colon HCT-116 CL4003) | classification of cell line as Low(1), Medium(2), High(3) sensitivity to compound ([1]; Colon HT29(I) CL4001) | classification of cell line as Low(1), Medium(2), High(3) sensitivity to compound ([1]; Colon KM12 CL4017) | classification of cell line as Low(1), Medium(2), High(3) sensitivity to compound ([1]; Colon SW-620 CL4009) | classification of cell line as Low(1), Medium(2), High(3) sensitivity to compound ([1]; Leukemia K562(I) CL7005) | classification of cell line as Low(1), Medium(2), High(3) sensitivity to compound ([1]; Leukemia RPMI-8226(I) CL7010) | classification of cell line as Low(1), Medium(2), High(3) sensitivity to compound ([1]; Melanoma LOX IMVI CL10001) | classification of cell line as Low(1), Medium(2), High(3) sensitivity to compound ([1]; Melanoma M14 CL10014) | classification of cell line as Low(1), Medium(2), High(3) sensitivity to compound ([1]; Melanoma MALME-3M CL10002) | classification of cell line as Low(1), Medium(2), High(3) sensitivity to compound ([1]; Melanoma SK-MEL-2 CL10005) | classification of cell line as Low(1), Medium(2), High(3) sensitivity to compound ([1]; Melanoma SK-MEL-28 CL10008) | sensitivity classification Low(1)/Medium(2)/High(3) ([1]; NSCLC NCI-H23(I) CL1001) | sensitivity classification Low(1)/Medium(2)/High(3) ([1]; NSCLC NCI-H522 CL1003) | sensitivity classification Low(1)/Medium(2)/High(3) ([1]; Ovarian IGROV1 CL6010) | sensitivity classification Low(1)/Medium(2)/High(3) ([1]; Ovarian OVCAR-3 CL6001) | sensitivity classification Low(1)/Medium(2)/High(3) ([1]; Ovarian OVCAR-5 CL6003) | sensitivity classification Low(1)/Medium(2)/High(3) ([1]; Ovarian OVCAR-8 CL6005) | sensitivity classification Low(1)/Medium(2)/High(3) ([1]; Ovarian SK-OV-3 CL6011) | sensitivity classification Low(1)/Medium(2)/High(3) ([1]; Prostate DU-145 CL11003) | sensitivity classification Low(1)/Medium(2)/High(3) ([1]; Prostate PC-3(I) CL11001) | sensitivity classification Low(1)/Medium(2)/High(3) ([1]; Renal 786-0 CL9018) | sensitivity classification Low(1)/Medium(2)/High(3) ([1]; Renal A498 CL9013) | sensitivity classification Low(1)/Medium(2)/High(3) ([1]; Renal ACHN CL9023) | sensitivity classification Low(1)/Medium(2)/High(3) ([1]; Renal RXF-393 CL9016) | sensitivity classification Low(1)/Medium(2)/High(3) ([1]; Renal SN12C CL9008) | sensitivity classification Low(1)/Medium(2)/High(3) ([1]; Renal TK10 CL9024)
6.5: −Log (GI50) ([2]; NSCLC NCI-H226 CL1013)
5.8: −Log (GI50) ([2]; Melanoma SK-MEL-28 CL10008)
6.0: −Log (GI50) ([2]; Melanoma SK-MEL-2 CL10005)
